± gives the standard deviation of the averaged measurements.
Tests used:
U-2 OS [1] = test: intracellular GSH:GSSG ratio (calculated); higher = more reduced glutathione pool; settings: 24 h
Procedure: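 Intracellular glutathione in U-2 OS cells after 24 h compound treatment at 5, 10 and 20 uM (some at 40 and 80 uM). Total glutathione and GSSG were measured with the GSH/GSSG-Glo kit, and the GSH:GSSG ratio was calculated. Mean of five technical replicate plates.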

U-2 OS [2] = test: cell viability (CellTiter-Glo) relative to DMSO (% of control); higher = more viable; settings: 24 h
Procedure: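 Cell viability of U-2 OS cells by CellTiter-Glo after 24 h compound treatment at 5, 10 and 20 uM (some at 40 and 80 uM), measured in parallel with the glutathione assay, as percent of DMSO control. Five technical replicate plates, averaged.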

U-2 OS [3] = test: total intracellular glutathione (GSH + GSSG) relative to DMSO (% of control); higher = more glutathione; settings: 24 h
Procedure: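 Total intracellular glutathione (GSH + GSSG) in U-2 OS cells by GSH/GSSG-Glo after 24 h compound treatment at 5, 10 and 20 uM (some at 40 and 80 uM), as percent of DMSO control. Five technical replicate plates, averaged.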

U-2 OS [4] = test: cell painting activity score (Mahalanobis distance from DMSO wells); higher = stronger morphological phenotype; settings: 24 h
Procedure, shortened: (§1)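 Using 384-well plates holding about 1,500 U-2 OS cells per well, treatment was applied by pin tool for 24 h at 37 °C, generally at six 2-fold concentrations ranging from 20 μM to 625 nM. Staining with MitoTracker, concanavalin A, phalloidin, wheat germ agglutinin, Hoechst and SYTO 14 preceded Opera Phenix imaging and CellProfiler feature extraction against DMSO cells on the same plate. Activity score and cell count are both referenced to DMSO wells, the former as a Mahalanobis distance. Four replicate plates were averaged for every value.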

U-2 OS [5] = test: relative cell count vs DMSO (cell painting) (fraction of DMSO control); higher = more cells remaining (less cytotoxic); settings: 24 h
Procedure, shortened: as §1

U-2 OS [6] = test: AUC of culture confluence over time (live-cell imaging) (AUC (confluence % x time)); higher = more confluent culture (less growth inhibition)
Procedure, shortened: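 Confluence of U-2 OS cells in F-12K medium with 10% FBS was tracked by live-cell imaging. Cells were seeded at 750 per well in 384-well plates and treated 24 h later by pin tool, with most compounds at 20, 10 and 5 μM and 0.2% DMSO. Cells were kept at 37 °C and imaged every 4 h for up to 60 h on an Incucyte S3 with a 10x objective. The value is the area under the confluence-versus-time curve.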

SMILES: CCCCCCCc1ccc(CCc2cccc(O)c2C(=O)O)cc1
- intracellular GSH:GSSG ratio (U-2 OS [1]; 5 µM): 21.3
- intracellular GSH:GSSG ratio (U-2 OS [1]; 10 µM): 17.1
- intracellular GSH:GSSG ratio (U-2 OS [1]; 20 µM): 15.3
- intracellular GSH:GSSG ratio (U-2 OS [1]; 40 µM): 15.7
- intracellular GSH:GSSG ratio (U-2 OS [1]; 80 µM): 11.3
- cell viability (U-2 OS [2]; 5 µM): 98.6 ± 2.9
- cell viability (U-2 OS [2]; 10 µM): 98.6 ± 4.4
- cell viability (U-2 OS [2]; 20 µM): 94.4 ± 4.6
- cell viability (U-2 OS [2]; 40 µM): 66.6 ± 7.9
- cell viability (U-2 OS [2]; 80 µM): 17.1 ± 8.5
- total intracellular glutathione (U-2 OS [3]; 5 µM): 93.7 ± 3.8
- total intracellular glutathione (U-2 OS [3]; 10 µM): 93.1 ± 7.4
- total intracellular glutathione (U-2 OS [3]; 20 µM): 83.9 ± 4
- total intracellular glutathione (U-2 OS [3]; 40 µM): 62.5 ± 9.8
- total intracellular glutathione (U-2 OS [3]; 80 µM): 30.7 ± 11
- cell painting activity score (U-2 OS [4]; 0.625 µM): 4.31
- cell painting activity score (U-2 OS [4]; 1.25 µM): 3.72
- cell painting activity score (U-2 OS [4]; 2.5 µM): 4.79
- cell painting activity score (U-2 OS [4]; 5 µM): 5.56
- cell painting activity score (U-2 OS [4]; 10 µM): 4.29
- cell painting activity score (U-2 OS [4]; 20 µM): 6.6
- cell painting activity score (U-2 OS [4]; 40 µM): 19.1
- cell painting activity score (U-2 OS [4]; 80 µM): 23.3
- relative cell count (U-2 OS [5]; 0.625 µM): 1.05
- relative cell count (U-2 OS [5]; 1.25 µM): 1.11
- relative cell count (U-2 OS [5]; 2.5 µM): 1.12
- relative cell count (U-2 OS [5]; 5 µM): 1.11
- relative cell count (U-2 OS [5]; 10 µM): 1.11
- relative cell count (U-2 OS [5]; 20 µM): 0.741
- relative cell count (U-2 OS [5]; 40 µM): 0.307
- relative cell count (U-2 OS [5]; 80 µM): 0.365
- AUC of culture confluence over time (U-2 OS [6]; 5 µM): 41.6
- AUC of culture confluence over time (U-2 OS [6]; 10 µM): 34.5
- AUC of culture confluence over time (U-2 OS [6]; 20 µM): 31.5
- AUC of culture confluence over time (U-2 OS [6]; 40 µM): 24.6
- AUC of culture confluence over time (U-2 OS [6]; 80 µM): 17.9

SMILES: C=CC(=O)Nc1ccc(CN2C(=O)N(c3cc(OC)cc(OC)c3)Cc3cnc(Nc4ccc(N5CCN(C)CC5)cc4)nc32)cc1
- intracellular GSH:GSSG ratio (U-2 OS [1]; 5 µM): 13.6
- intracellular GSH:GSSG ratio (U-2 OS [1]; 10 µM): 16.7
- intracellular GSH:GSSG ratio (U-2 OS [1]; 20 µM): 12.9
- cell viability (U-2 OS [2]; 5 µM): 91 ± 4.1
- cell viability (U-2 OS [2]; 10 µM): 79.2 ± 3.3
- cell viability (U-2 OS [2]; 20 µM): 69.2 ± 8.3
- total intracellular glutathione (U-2 OS [3]; 5 µM): 96.1 ± 3.3
- total intracellular glutathione (U-2 OS [3]; 10 µM): 93.1 ± 5
- total intracellular glutathione (U-2 OS [3]; 20 µM): 98.9 ± 4.6
- cell painting activity score (U-2 OS [4]; 0.625 µM): 6.58
- cell painting activity score (U-2 OS [4]; 1.25 µM): 8.57
- cell painting activity score (U-2 OS [4]; 2.5 µM): 8.77
- cell painting activity score (U-2 OS [4]; 5 µM): 10.2
- cell painting activity score (U-2 OS [4]; 10 µM): 12.1
- cell painting activity score (U-2 OS [4]; 20 µM): 22.1
- relative cell count (U-2 OS [5]; 0.625 µM): 0.983
- relative cell count (U-2 OS [5]; 1.25 µM): 0.946
- relative cell count (U-2 OS [5]; 2.5 µM): 0.955
- relative cell count (U-2 OS [5]; 5 µM): 0.951
- relative cell count (U-2 OS [5]; 10 µM): 0.83
- relative cell count (U-2 OS [5]; 20 µM): 0.673
- AUC of culture confluence over time (U-2 OS [6]; 5 µM): 44.2
- AUC of culture confluence over time (U-2 OS [6]; 10 µM): 37.3
- AUC of culture confluence over time (U-2 OS [6]; 20 µM): 27.8

SMILES: O=S1(=O)C=Cc2ccccc21
- intracellular GSH:GSSG ratio (U-2 OS [1]; 5 µM): 19.9
- intracellular GSH:GSSG ratio (U-2 OS [1]; 10 µM): 14.6
- intracellular GSH:GSSG ratio (U-2 OS [1]; 20 µM): 13.5
- cell viability (U-2 OS [2]; 5 µM): 102 ± 5
- cell viability (U-2 OS [2]; 10 µM): 97.3 ± 2.8
- cell viability (U-2 OS [2]; 20 µM): 103 ± 5.8
- total intracellular glutathione (U-2 OS [3]; 5 µM): 138 ± 4
- total intracellular glutathione (U-2 OS [3]; 10 µM): 132 ± 8.3
- total intracellular glutathione (U-2 OS [3]; 20 µM): 141 ± 7.7
- cell painting activity score (U-2 OS [4]; 0.625 µM): 7.06
- cell painting activity score (U-2 OS [4]; 1.25 µM): 8.41
- cell painting activity score (U-2 OS [4]; 2.5 µM): 10.4
- cell painting activity score (U-2 OS [4]; 5 µM): 10.2
- cell painting activity score (U-2 OS [4]; 10 µM): 13.2
- cell painting activity score (U-2 OS [4]; 20 µM): 13.2
- relative cell count (U-2 OS [5]; 0.625 µM): 1.04
- relative cell count (U-2 OS [5]; 1.25 µM): 0.994
- relative cell count (U-2 OS [5]; 2.5 µM): 0.991
- relative cell count (U-2 OS [5]; 5 µM): 1.05
- relative cell count (U-2 OS [5]; 10 µM): 0.975
- relative cell count (U-2 OS [5]; 20 µM): 0.957
- AUC of culture confluence over time (U-2 OS [6]; 5 µM): 53.2
- AUC of culture confluence over time (U-2 OS [6]; 10 µM): 50.3
- AUC of culture confluence over time (U-2 OS [6]; 20 µM): 36.8

SMILES: C[C@H]1CCC/C=C/[C@@H]2C[C@H](O)C[C@H]2[C@H](O)/C=C/C(=O)O1
- intracellular GSH:GSSG ratio (U-2 OS [1]; 5 µM): 26.9
- intracellular GSH:GSSG ratio (U-2 OS [1]; 10 µM): 17.4
- intracellular GSH:GSSG ratio (U-2 OS [1]; 20 µM): 16.1
- cell viability (U-2 OS [2]; 5 µM): 62.9 ± 3.7
- cell viability (U-2 OS [2]; 10 µM): 64.5 ± 1.9
- cell viability (U-2 OS [2]; 20 µM): 63.8 ± 3.9
- total intracellular glutathione (U-2 OS [3]; 5 µM): 54 ± 2.2
- total intracellular glutathione (U-2 OS [3]; 10 µM): 41.5 ± 18
- total intracellular glutathione (U-2 OS [3]; 20 µM): 45.2 ± 18
- cell painting activity score (U-2 OS [4]; 0.625 µM): 15.2
- cell painting activity score (U-2 OS [4]; 1.25 µM): 14.7
- cell painting activity score (U-2 OS [4]; 2.5 µM): 15.3
- cell painting activity score (U-2 OS [4]; 5 µM): 15.9
- cell painting activity score (U-2 OS [4]; 10 µM): 15.9
- cell painting activity score (U-2 OS [4]; 20 µM): 17.6
- relative cell count (U-2 OS [5]; 0.625 µM): 0.653
- relative cell count (U-2 OS [5]; 1.25 µM): 0.645
- relative cell count (U-2 OS [5]; 2.5 µM): 0.645
- relative cell count (U-2 OS [5]; 5 µM): 0.629
- relative cell count (U-2 OS [5]; 10 µM): 0.562
- relative cell count (U-2 OS [5]; 20 µM): 0.479
- AUC of culture confluence over time (U-2 OS [6]; 5 µM): 18.6
- AUC of culture confluence over time (U-2 OS [6]; 10 µM): 18.1
- AUC of culture confluence over time (U-2 OS [6]; 20 µM): 18.2
